Reference: patent US20230329994A1, “Surfactant Containing Formulation of Pseudo-Ceramides” (Symrise AG, priority 2020, published 2023)

How the values were obtained:
[1] = Hair shine/luster evaluation (SAMBA system)
Method: The hair luster was measured with a shampoo formulation according to the present invention containing pseudoceramide CeramideBio (shampoo, 1.0%), a shampoo formulation containing Ceramide 2 (shampoo, 1%) and a Placebo (shampoo).
Principle: Hair luster test analyzes the light reflection from the hair surface and other interactions of the incident light with the hair. The measurement is made by using SAMBA system. The results are expressed by luster: parameter calculated from values of shine, chroma and diffused light to express the observer perception of the gloss effect. The higher is the value, the best impression of the observer regarding gloss effect of the hair. […]

[2] = Solubility: visual appearance of shampoo formulations; format: physicochemical; conditions: 0.1 in shampoo, surfactant approx. 14%; after preparation, after 3 days at 5° C. and 3 days at room temperature
Method: The solubility of the pseudoceramide CeramideBio in shampoo is evaluated in comparison to Ceramide 2 and Ceramide 3.
Shampoo Formulations: • Surfactant content: Approx. 14% 01
The shampoo formulations were prepared as follows: Phase A components were blended by gentle stirring; the process was stopped, when foaming starts.
The ceramides/pseudoceramide were predispersed in polyglyceryl-4-caprate and heated up to 90° C. The ceramides/pseudoceramide were melted and finely dispersed. Ucare Polymer JR-400 and water were added and the mixture was heated up to 90° C. again and stirred for 10 minutes.
Phases B, C and D were added to phase A one after the other by stirring. After that, the mixture was stirred slowly with a vane stirrer until the solution was homogeneous. At last Phase E was added by stirring with a vane stirrer. The pH value was adjusted to about 5.4 to 5.8.
The visual appearance of the shampoo formulations was evaluated after preparation, after 3 days storage at 5° C. and 3 day at room temperature.
The visual appearance of the shampoo formulations is depicted in FIG. 1. From left to the right: Sample CeramideBio (01_B), Ceramide 2 (02_B), Ceramide 3 (03_B).

[3] = Swelling test / hydrophobicity of hair fibers; conditions: for diameter variation of the hair after 180 s: 1× bleached tresses
Method: The swelling of the hair was measured with a conditioning formulation according to the present invention containing pseudoceramide CeramideBio (leave-on, 0.5 and 0.05%), a conditioning formulation containing Ceramide 2 (leave-on, 0.5% and 0.05%) and a Placebo (leave-on).
Principle: Through diameter measurements it is possible to determine the level of swelling of a hair fiber over time when in contact with water. The swelling test evaluates the action of materials in forming a hydrophobic film on hair surface in order to prevent humidity from penetrating the hair, which in turn provokes the hair diameter variation. The laser measures the variation in the fiber diameter as it absorbs water over a pre-determined time. According to the fiber condition or the film covering its surface, the level of swelling may change. The more damaged the hair, the more hydrophilic it is, since most of the hair damages take the lipids, ceramides and other hydrophobic substances away from the hair, and, consequently, more swelling is noticed. Parameter measured: variation in hair diameter (%).
Swelling Test: • 3 Caucasian hair tresses (2.5 g, 25 cm, 1× bleached) were cleaned with a sodium laureth sulfate solution (SLES) (10%) for 1 minute; • Test samples (see above) were applied to each tress (0.25 ml of sample; massaging for 1 minute); • Tresses were left for drying at controlled environment (22±2° C.; 50±5% RH) overnight; • 45 fibers from each treatment were collected randomly and fixed in plastic tabs one by one; • Swelling test was performed during 180 s; • Variation on fiber's diameter was calculated; • Comparisons among treatments were performed using one-way variance analysis (ANOVA), followed by Tukey's honestly significant difference (HSD) test, at a 95% confidence interval.

recrystallization in shampoo formulation (visual appearance) [2] | Compound | effect on hair luster ([1]; shampoo formulation containing 1.0%) | luster of the hair compared to shampoo formulation with Ceramide 2 ([1]; shampoo, 1.0%, applied 5 times, 3× bleached tresses) | diameter variation of the hair after 180 s compared to conditioning formulation with Ceramide 2 ([3]; leave-on conditioning formulation) | diameter variation of the hair after 180 s ([3]; leave-on conditioning formulation, higher concentration (0.5%)) | diameter variation of the hair after 180 s ([3]; leave-on conditioning formulation, lower concentration (0.05%)) | hair fiber swelling / hydrophobicity versus non-treated hair, placebo and leave-on with 0.05% Ceramide 2 ([3]; leave-on formulation containing 0.05%)
without recrystallization | CCCCCCCCCCCCCCCCOC(=O)[C@@H]1C[C@@H](O)CN1C(=O)CCCCCCCCCCCCCCC [CeramideBio, Cetylhydroxyproline palmitamide] | able to increase hair luster | higher | smaller | 15.90% | 14.44% | statistically decreasing its swelling
showed recrystallization | CCCCCCCCCCCCCCCCCC(=O)N[C@@H](CO)[C@H](O)CCCCCCCCCCCCCCC [Ceramide 2] | – | – | – | – | – | –
showed recrystallization | CCCCCCCCCCCCCCCCCCCCCCCC(=O)N[C@@H](CO)[C@H](O)C(O)CCCCCCCCCCCCCC (stereo partly drawn) [Ceramide 3] | – | – | – | – | – | –
